Test results from paper PMC12724231, “APC24-7, a covalent combination of boronic acid and chelator moieties, restores β-lactam efficiency against metallo-β-lactamase-producers” (mSphere, 2025).

Columns and labels:
[1] = test system: T1, Klebsiella pneumoniae K46-62; assay: microbe, parasite or virus in culture; design: species or system clinical isolates of E. coli and K. pneumoniae; details: Klebsiella pneumoniae, K4662; inhibitor alone; read-out: MIC APC24-7
T1 construct: K46-62
Protocol: (§1) MICs for clinical isolates were determined in a broth microdilution assay according to Clinical and Laboratory Standards Institute (CLSI) ([75]), using cation-adjusted Mueller-Hinton broth (Thermo Fisher Scientific, Lenexa, USA). The direct colony suspension method was utilized by preparing an inoculum of an OD600 0.17, except for E. coli #36 in which 0.10 was used, which equated to a concentration of 10^8 colony-forming units (CFU) per mL. Inoculum controls were included for all assays ([76]). […] Subsequently, we aimed to identify a potent β-lactam/APC24-7 combination capable of reversing β-lactamase-mediated BL resistance in our clinical isolates. All 16 isolates were exposed to increasing concentrations of meropenem (carbapenem), aztreonam (monobactam), ceftazidime and cefepime (cephalosporins), as well as amoxicillin (penicillin), both in the absence and presence of 57 µM (32 mg/L) of APC24-7. The effectiveness of these combinations was assessed based on their ability to resensitize the clinical isolates according to the clinical breakpoints (EUCAST clinical breakpoint table version 15.0, www.eucast.org).

[2] = test system: T2, Klebsiella pneumoniae BAA-2146™; assay: microbe, parasite or virus in culture; design: species or system clinical isolates of E. coli and K. pneumoniae; details: Klebsiella pneumoniae, BAA2146; inhibitor alone; read-out: MIC APC24-7
T2 construct: ATCC BAA-2146
Protocol: as §1

[3] = test system: T3, Escherichia coli BAA-2469™; assay: microbe, parasite or virus in culture; design: species or system clinical isolates of E. coli and K. pneumoniae; details: Escherichia coli, BAA2469; inhibitor alone; read-out: MIC APC24-7
T3 construct: ATCC BAA-2469
Protocol: as §1

[4] = test system: T4, Klebsiella pneumoniae BAA1705™; assay: microbe, parasite or virus in culture; design: species or system clinical isolates of E. coli and K. pneumoniae; details: Klebsiella pneumoniae, BAA1705; inhibitor alone; read-out: MIC APC24-7
T4 construct: ATCC BAA-1705
Protocol: as §1

OXA-48 = OXA-48 (Klebsiella pneumoniae, UniProt Q6XEC0); assay: biochemical; design: Residual beta-lactamase activity; meropenem (NDM-1, 300 nm) or nitrocefin (others, 480 nm) hydrolysis, 1 uM Zn2+ (OXA-48: bicarbonate)
Protocol: (§2) IC50 determination with purified enzymes was performed as previously described ([40]). In brief, enzymes were diluted in 50 mM HEPES, pH 7.5, supplemented with 1 µM Zn^2+. For OXA-48, 50 mM HEPES, pH 7.5, was supplemented with 50 mM sodium bicarbonate buffer solution (Sigma Aldrich). Enzymes and inhibitors were mixed at various inhibitor concentrations, and absorbance was measured by spectrophotometry (Table S5). For NDM-1 and MBP-NDM-9, the hydrolysis of meropenem (24 µM) was monitored at 300 nm using UV- transparent 96-well plates (Corning, Kennebunk, ME). For all other enzymes, nitrocefin (24 µM, Millipore Sigma, USA) hydrolysis was monitored at 480 nm. The residual enzyme activity at various inhibitor concentrations was calculated in comparison to the initial reaction velocity of the inhibitor-free […] control. Dose-response curves were fitted using nonlinear regression in GraphPad Prism v. 10.5.0. All tests were performed at least in duplicates at 25°C.

NDM-1 = molecular target: T5, NDM-1 (Klebsiella pneumoniae, UniProt C7C422); assay: biochemical; design: Residual beta-lactamase activity; meropenem (NDM-1, 300 nm) or nitrocefin (others, 480 nm) hydrolysis, 1 uM Zn2+ (OXA-48: bicarbonate)
T5 construct: gene blaNDM-1
Protocol: as §2

VIM-7 = VIM-7 (Pseudomonas aeruginosa, UniProt Q840P9); assay: biochemical; design: Residual beta-lactamase activity; meropenem (NDM-1, 300 nm) or nitrocefin (others, 480 nm) hydrolysis, 1 uM Zn2+ (OXA-48: bicarbonate)
Protocol: as §2

Escherichia coli MP21-05 = test system: T6, Escherichia coli MP21-05; assay: microbe, parasite or virus in culture; design: species or system E. coli E. cloni 10G; Microdilution MIC of inhibitor alone in LB, OD600 read-out, E. coli 10G without or with empty vector; details: MP2105, inhibitor alone, read-out: MIC APC24-7
T6 construct: MP21-05
Protocol: (§3) Susceptibility testing of isogenic E. coli E. cloni 10G (Table 2) was determined by both the microdilution assay. […] Overnight cultures were prepared in LB supplemented with 25 mg/L chloramphenicol at 37°C under shaking at 700 rpm. The overnight cultures were diluted in PBS to 10^6 CFU/ mL, followed by inoculation in LB to ~10^5 CFU in 384-well plates (VWR, Radnor, PA, USA). Plates were prepared with twofold increasing concentrations of meropenem and cefepime ([…], respectively) to a total inoculated volume of 100 µL Plates were incubated at 37°C without shaking for 19–21 h. OD600 was determined in a SpectraMax Plus plate reader (Molecular Devices).

Escherichia coli MP32-64 = test system: T7, Escherichia coli MP32-64; assay: microbe, parasite or virus in culture; design: species or system E. coli E. cloni 10G; Microdilution MIC of inhibitor alone in LB, OD600 read-out, E. coli 10G without or with empty vector; details: MP3264, inhibitor alone, read-out: MIC APC24-7
T7 construct: MP32-64
Protocol: as §3

VIM-2 = molecular target: T8, VIM-2 (Pseudomonas aeruginosa, UniProt Q9K2N0); design: Residual beta-lactamase activity; meropenem (NDM-1, 300 nm) or nitrocefin (others, 480 nm) hydrolysis, 1 uM Zn2+ (OXA-48: bicarbonate); details: inhibitor
T8 construct: gene blaVIM-2
Protocol: as §2

VIM-7, sequence (Q840P9 18-265): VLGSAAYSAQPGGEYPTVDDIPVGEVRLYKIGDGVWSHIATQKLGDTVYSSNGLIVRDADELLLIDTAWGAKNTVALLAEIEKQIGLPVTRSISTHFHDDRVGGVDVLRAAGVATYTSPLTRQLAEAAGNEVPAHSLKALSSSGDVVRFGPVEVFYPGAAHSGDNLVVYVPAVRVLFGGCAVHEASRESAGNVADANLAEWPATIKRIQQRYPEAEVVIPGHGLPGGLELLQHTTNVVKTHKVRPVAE
OXA-48, sequence (Q6XEC0 23-265 limits assumed): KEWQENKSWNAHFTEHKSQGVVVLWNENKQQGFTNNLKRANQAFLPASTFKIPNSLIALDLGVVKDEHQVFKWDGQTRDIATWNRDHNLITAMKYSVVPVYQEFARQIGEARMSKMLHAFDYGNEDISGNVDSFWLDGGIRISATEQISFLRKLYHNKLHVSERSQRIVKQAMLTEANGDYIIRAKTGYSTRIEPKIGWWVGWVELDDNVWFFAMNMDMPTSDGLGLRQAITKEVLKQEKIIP
T5 sequence (C7C422 29-270 limits assumed): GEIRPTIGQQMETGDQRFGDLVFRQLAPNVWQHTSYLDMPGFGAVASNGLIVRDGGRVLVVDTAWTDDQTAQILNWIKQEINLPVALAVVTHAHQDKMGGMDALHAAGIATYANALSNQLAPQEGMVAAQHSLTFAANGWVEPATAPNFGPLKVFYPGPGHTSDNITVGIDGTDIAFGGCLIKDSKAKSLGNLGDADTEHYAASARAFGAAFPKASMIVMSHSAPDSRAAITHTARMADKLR

Q: For O=C(N[C@H]1Cc2cccc(C(=O)O)c2OB1O)c1ccc(CNCCN(Cc2ccccn2)Cc2ccccn2)cc1 [APC24-7], which MIC [1] is on record?
A: > 906 µM

Q: And the MIC [2]?
A: > 906 µM

Q: What about the MIC [3] of the same molecule?
A: > 906 µM

Q: And the MIC [4]?
A: > 906 µM

Q: What about the IC50 (OXA-48) of the same molecule?
A: 420 nM

Q: And the IC50 (NDM-1)?
A: 140 nM

Q: What about the IC50 (VIM-7) of the same molecule?
A: 1080 nM

Q: What about the MIC (Escherichia coli MP21-05) of the same molecule?
A: > 906 µM

Q: And the MIC (Escherichia coli MP32-64)?
A: > 906 µM

Q: What about the IC50 (VIM-2) of the same molecule?
A: 110 nM
